Measurements reported in patent US20070213339A1 (Bayer Pharmaceuticals Corporation, priority 2004, published 2007).

What follows are compounds tested on Colo205 human colon carcinoma cell line (assay: In vitro tumor cell proliferation assay (MTS, CellTiter 96 Aqueous One Solution)). Conditions: COLO 205, Colo205 cells, 72 hours compound exposure, MTS absorbance at 490 nm, read-out: IC50 (concentration of test compound required to inhibit proliferation of 50% of the cells).
Assay type: cell-based
Experimental: In Vitro Tumor Cell Proliferation Assay
The adherent H460 human non-small cell lung carcinoma and Colo205 human colon carcinoma cell lines were purchased from the American Type and Culture Collection (ATCC, Manassas, Va.) and maintained in RPMI-1640 growth media supplemented with 10% heat inactivated fetal bovine serum (Gibco, Invitrogen Corp. Grand Island, N.Y.). At 37° C. in a humidified atmosphere of 5% CO2.
The CellTiter 960 Aqueous One Solution kit, MTS, (Promega, Madison, Wis.) was used to measure proliferation of tumor cell lines in vitro. This method monitors the bioreduction of a tetrazolium dye as a measure of cell viability. On Day 0, exponentially growing cells were trypsinized, resuspended in RPMI-1640 growth media supplemented with 10% FCS, 100 u/ml of penicillin G and 100 ug/ml of streptomycin sulfate, and seeded at 2000 cells per well into 96 well microtiter plates. Cells were incubated overnight in a humidified atmosphere of 5% CO2 at 37° C. On Day 1, serial dilutions of compounds were prepared at 2× the finial assay concentration. One hundred microliters of 2× solution was added to test wells in duplicate and control wells received no test compound. The final drug concentration ranged from 0 to 10-20 um in a 5 point dose-response curve. Cells were incubated in the presence of test compounds in a humidified atmosphere of 5% CO2 at 37° C. for 72 hours. After 72 hours of compound exposure, 40 ul of Promega CellTiter 960 Aqueous One Solution was added to each well and absorbance at 490 n-M was measured using a multi-well plate reader. Percent inhibition of proliferation was calculated using the following formula: 100×(1−Absorbancetreated−Background/(Absorbancecontrol−Background)
Absorbancetreated=absorbance at 490 nm in test wells, cells with test compound
Absorbancecontrol=absorbance at 490 nm in control wells, cells with no test compound
Background=absorbance 490 nm in wells containing media and no cells
The concentration of test compound required to inhibit proliferation of 50% of the cells (IC50) was determined by linear regression analysis.
Representative compounds of the invention were tested in the above-described Colo205 human colon carcinoma cell line in vitro assay and found to inhibit human colon carcinoma cell proliferation, and are summarized as follows: […]

SMILES | IC50 [nM]
Cc1ccc(N2CCN(c3c(F)cc4c(=O)c(C(=O)O)cn(-c5ccc(CN6CCCC6)cc5)c4c3OC(F)(F)Cl)CC2)cc1C [Example 151, 8-[chloro(difluoro)methoxy]-7-[4-(3,4-dimethylphenyl)piperazin-1-yl]-6-fluoro-4-oxo-1-[4-(pyrrolidin-1-ylmethyl)phenyl]-1,4-dihydroquinoline-3-carboxylic acid] | < 500
COc1c(N2CCN(c3ccccc3F)CC2)c(F)cc2c(=O)c(C(=O)O)cn(-c3ccc(CN4CCCC4)cc3)c12 [Example 75, 6-fluoro-7-[4-(2-fluorophenyl)piperazin-1-yl]-8-methoxy-4-oxo-1-[4-(pyrrolidin-1-ylmethyl)phenyl]-1,4-dihydroquinoline-3-carboxylic acid] | 500 to 2000
O=C(O)c1cn(-c2ccc(CN3CCCC3)nc2)c2c(Cl)c(N3CCN(c4ccc(Cl)cc4)CC3)c(F)cc2c1=O [Example 38, 8-chloro-7-[4-(4-chlorophenyl)piperazin-1-yl]-6-fluoro-4-oxo-1-[6-(pyrrolidin-1-ylmethyl)pyridin-3-yl]-1,4-dihydroquinoline-3-carboxylic acid] | < 500
NC(=O)c1cccnc1N1CCN(c2c(F)cc3c(=O)c(C(=O)O)cn(-c4ccc(CN5CCCC5)cc4)c3c2Cl)CC1 [Example 9, 7-{4-[3-(aminocarbonyl)pyridin-2-yl]piperazin-1-yl}-8-chloro-6-fluoro-4-oxo-1-[4-(pyrrolidin-1-ylmethyl)phenyl]-1,4-dihydroquinoline-3-carboxylic acid] | 500 to 2000
C[C@H]1CCCCN1Cc1ccc(-n2cc(C(=O)O)c(=O)c3cc(F)c(N4CCN(c5ncccn5)CC4)c(OC(F)(F)F)c32)cc1 [Example 139, 6-fluoro-1-(4-{[(2S)-2-methylpiperidin-1-yl]methyl}phenyl)-4-oxo-7-(4-pyrimidin-2-ylpiperazin-1-yl)-8-(trifluoromethoxy)-1,4-dihydroquinoline-3-carboxylic acid] | < 500
COC[C@@H]1CCCN1Cc1ccc(-n2cc(C(=O)O)c(=O)c3cc(F)c(N4CCN(c5ncccn5)CC4)c(Cl)c32)cc1 [Example 26, 8-chloro-6-fluoro-1-(4-{[(2S)-2-(methoxy-methyl)pyrrolidin-1-yl]methyl}phenyl)-4-oxo-7-(4-pyrimidin-2-ylpiperazin-1-yl)-1,4-dihydroquinoline-3-carboxylic acid] | < 500
O=C(O)c1cn(-c2ccc(CN3CCCC3)cc2)c2c(Cl)c(N3CCN(c4ncccn4)CC3)c(F)cc2c1=O [Example 6, 8-chloro-6-fluoro-4-oxo-7-(4-pyrimidin-2-ylpiperazin-1-yl)-1-[4-(pyrrolidin-1-ylmethyl)phenyl]-1,4-dihydroquinoline-3-carboxylic acid] | < 500
Cc1cccnc1N1CCN(c2c(F)cc3c(=O)c(C(=O)O)cn(-c4ccc(CN(C)C)cc4)c3c2OC(F)(F)F)CC1 [Example 129, 1-{4-[(dimethylamino)methyl]phenyl}-6-fluoro-7-[4-(3-methylpyridin-2-yl)piperazin-1-yl]-4-oxo-8-(trifluoromethoxy)-1,4-dihydroquinoline-3-carboxylic acid] | 500 to 2000
Cc1cccnc1N1CCN(c2c(F)cc3c(=O)c(C(=O)O)cn(-c4ccc(CN5CCCC5)cc4F)c3c2Cl)CC1 [Example 44, 8-chloro-6-fluoro-1-[2-fluoro-4-(pyrrolidin-1-ylmethyl)phenyl]-7-[4-(3-methylpyridin-2-yl)piperazin-1-yl]-4-oxo-1,4-dihydroquinoline-3-carboxylic acid] | < 500
CCN(CC)Cc1ccc(-n2cc(C(=O)O)c(=O)c3cc(F)c(N4CCN(c5ccc(Cl)cc5)CC4)c(OC(F)(F)Cl)c32)cc1 [Example 164, 8-[chloro(difluoro)methoxy]-7-[4-(4-chlorophenyl)piperazin-1-yl]-1-{4-[(diethylamino)methyl]phenyl}-6-fluoro-4-oxo-1,4-dihydroquinoline-3-carboxylic acid] | < 500
COc1c(N2CCN(c3ccc(C#N)cc3)CC2)c(F)cc2c(=O)c(C(=O)O)cn(-c3ccc(CN4CCCC4)cc3)c12 [Example 77, 7-[4-(4-cyanophenyl)piperazin-1-yl]-6-fluoro-8-methoxy-4-oxo-1-[4-(pyrrolidin-1-ylmethyl)phenyl]-1,4-dihydroquinoline-3-carboxylic acid] | < 500
COc1c(N2CCN(c3ncccc3C#N)CC2)c(F)cc2c(=O)c(C(=O)O)cn(-c3ccc(CN4CCCC4)cc3)c12 [Example 79, 7-[4-(3-cyanopyridin-2-yl)piperazin-1-yl]-6-fluoro-8-methoxy-4-oxo-1-[4-(pyrrolidin-1-ylmethyl)phenyl]-1,4-dihydroquinoline-3-carboxylic acid] | < 500
COc1c(N2CCN(c3cccc(Cl)c3)CC2)c(F)cc2c(=O)c(C(=O)O)cn(-c3ccc(CN(C)C)cc3)c12 [Example 98, 7-[4-(3-chlorophenyl)piperazin-1-yl]-1-{4-[(dimethylamino)methyl]phenyl}-6-fluoro-8-methoxy-4-oxo-1,4-dihydroquinoline-3-carboxylic acid] | < 500
O=C(O)c1cn(-c2ccc(CN3CCCC3)cc2F)c2c(Cl)c(N3CCN(c4ccccn4)CC3)c(F)cc2c1=O [Example 46, 8-chloro-6-fluoro-1-[2-fluoro-4-(pyrrolidin-1-ylmethyl)phenyl]-4-oxo-7-(4-pyridin-2-ylpiperazin-1-yl)-1,4-dihydroquinoline-3-carboxylic acid] | 500 to 2000

Second part, the compound after the results:

IC50 [nM] | SMILES
< 500 | O=C(O)c1cn(-c2ccc(CNC3CCCC3)cc2)c2c(OC(F)(F)Cl)c(N3CCN(c4ccccn4)CC3)c(F)cc2c1=O [Example 180, 8-(chloro-difluoromethoxy)-1-(4-cyclopentylaminomethyl-phenyl)-6-fluoro-4-oxo-7-(4-pyridin-2-yl-piperazin-1-yl)-1,4-dihydroquinoline-3-carboxylic acid]
< 500 | O=C(O)c1cn(-c2ccc(CNC3CCCC3)cc2)c2c(Cl)c(N3CCN(c4ncccn4)CC3)c(F)cc2c1=O [Example 57, 8-chloro-1-{4-[(cyclopentylamino)methyl]-phenyl}-6-fluoro-4-oxo-7-(4-pyrimidin-2-ylpiperazin-1-yl)-1,4-dihydroquinoline-3-carboxylic acid]
< 500 | COc1c(N2CCN(c3ccc(C#N)cc3)CC2)c(F)cc2c(=O)c(C(=O)O)cn(-c3ccc(CN4CCCCC4)cc3)c12 [Example 192, 7-[4-(4-cyanophenyl)-piperazine-1-yl]-6-fluoro-8-methoxy-4-oxo-1-(4-piperidin-1-ylmethyl-phenyl)-1,4-dihydroquinoline-3-carboxylic acid]
500 to 2000 | N#Cc1c(N2CCN(c3ccccn3)CC2)c(F)cc2c(=O)c(C(=O)O)cn(-c3ccc(CN4CCCC4)cc3)c12 [Example 169, 8-cyano-6-fluoro-4-oxo-7-(4-pyridin-2-ylpiperazin-1-yl)-1-[4-(pyrrolidin-1-ylmethyl)phenyl]-1,4-dihydroquinoline-3-carboxylic acid]
< 500 | O=C(O)c1cn(-c2ccc(CN3CCCC3)nc2)c2c(Cl)c(N3CCN(c4ccc(F)cc4)CC3)c(F)cc2c1=O [Example 37, 8-chloro-6-fluoro-7-[4-(4-fluorophenyl)-piperazin-1-yl]-4-oxo-1-[6-(pyrrolidin-1-ylmethyl)pyridin-3-yl]-1,4-dihydroquinoline-3-carboxylic acid]
2000 to 20000 | CON(C)Cc1ccc(-n2cc(C(=O)O)c(=O)c3cc(F)c(N4CCN(c5ccccc5C#N)CC4)c(Cl)c32)cc1 [Example 53, 8-chloro-7-[4-(2-cyanophenyl)piperazin-1-yl]-6-fluoro-1-(4-{[methoxy(methyl)amino]methyl}phenyl)-4-oxo-1,4-dihydroquinoline-3-carboxylic acid]
500 to 2000 | O=C(O)c1cn(-c2cccc(CN3CCCCC3)c2)c2c(OC(F)(F)F)c(N3CCN(c4ccc(F)cc4)CC3)c(F)cc2c1=O [Example 141, 6-fluoro-7-[4-(4-fluorophenyl)piperazin-1-yl]-4-oxo-1-[3-(piperidin-1-ylmethyl)phenyl]-8-(trifluoromethoxy)-1,4-dihydroquinoline-3-carboxylic acid]
< 500 | O=C(O)c1cn(-c2ccc(CN3CCCC3)cc2)c2c(Cl)c(N3CCN(c4ccccn4)CC3)c(F)cc2c1=O [Example 1, 8-chloro-6-fluoro-4-oxo-7-(4-pyridin-2-yl-piperazin-1-yl)-1-[4-(pyrrolidin-1-ylmethyl)phenyl]-1,4-dihydroquinoline-3-carboxylic acid]
500 to 2000 | O=C(O)c1cn(-c2cccc(CN3CCCCC3)c2)c2c(OC(F)(F)F)c(N3CCN(c4ccccn4)CC3)c(F)cc2c1=O [Example 140, 6-fluoro-4-oxo-1-[3-(piperidin-1-yl-methyl)phenyl]-7-(4-pyridin-2-ylpiperazin-1-yl)-8-(trifluoromethoxy)-1,4-dihydroquinoline-3-carboxylic acid]
